Reference: the supplement of paper PMC10307832

Columns and labels:
Test in all cases: relative viability (nuclei count vs DMSO), 5 days (fraction); higher = more cells survive
[1] = compound: CC1=CN2C(=O)C=C(N=C2C(=C1)C(C)NC3=CC=CC=C3)N4CCOCC4 [TGX 221] + Nc1nc2[nH]cc(CCc3ccc(C(=O)N[C@@H](CCC(=O)O)C(=O)O)cc3)c2c(=O)[nH]1 [Pemetrexed] (partner 0.2 µM)
Method in brief: (§1)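 Lung cancer cell lines were pin-tool dosed in 1536-well plates on the day after seeding, with either a lone drug or a fixed anchor-drug dose plus five library-drug doses (not always all listed) in √10 steps. Nuclei were counted on 4× images after 5 days. Relative viability is the ratio of treated-well to vehicle-well nuclei counts, with each value a median of duplicate plates.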

[2] = compound: C1=CC=C(C(=C1)C2=CC=C(C=C2)C3=CSC4=C3C(=C(C(=O)N4)C#N)O)O + CC(C)C[C@H](NC(=O)[C@H](Cc1ccccc1)NC(=O)c1cnccn1)B(O)O [Bortezomib] (partner 0.002 µM)
Method in brief: as §1

[3] = compound: C1=CC=C(C(=C1)C2=CC=C(C=C2)C3=CSC4=C3C(=C(C(=O)N4)C#N)O)O + C[C@]1(O)C[C@@H](c2nc(-c3ccc4ccc(-c5ccccc5)nc4c3)c3c(N)nccn32)C1 [Linsitinib] (partner 1 µM)
Method in brief: as §1

[4] = compound: O=C(CCCCCCNC(=O)c1cnc(N(c2ccccc2)c2ccccc2)nc1)NO [Ricolinostat] + COc1cccc2cc(-c3nc([C@H]4CC[C@H](C(=O)O)CC4)n4ncnc(N)c34)[nH]c12 [OSI-027] (partner 0.5 µM)
Method in brief: as §1

Cell Line | relative viability ([1]; first compound 0.08 µM) | relative viability ([1]; first compound 0.253 µM) | relative viability ([1]; first compound 0.8 µM) | relative viability ([1]; first compound 2.53 µM) | relative viability ([1]; first compound 8 µM) | relative viability ([2]; first compound 0.08 µM) | relative viability ([2]; first compound 0.253 µM) | relative viability ([2]; first compound 0.8 µM) | relative viability ([2]; first compound 2.53 µM) | relative viability ([2]; first compound 8 µM) | relative viability ([3]; first compound 0.08 µM) | relative viability ([3]; first compound 0.253 µM) | relative viability ([3]; first compound 0.8 µM) | relative viability ([3]; first compound 2.53 µM) | relative viability ([3]; first compound 8 µM) | relative viability ([4]; first compound 0.08 µM) | relative viability ([4]; first compound 0.253 µM) | relative viability ([4]; first compound 0.8 µM) | relative viability ([4]; first compound 2.53 µM)
LXF-289 | 0.926 | 0.918 | 0.897 | 0.937 | 0.961 | 0.974 | 0.973 | 1 | 1 | 0.986 | 0.978 | 0.961 | 0.986 | 1 | 0.973 | 0.668 | 0.906 | 0.782 | 0.749
NCI-H1975 | 0.306 | 0.26 | 0.293 | 0.297 | 0.273 | 0.357 | 0.348 | 0.436 | 0.41 | 0.343 | 0.926 | 0.802 | 1.04 | 1.02 | 0.796 | 0.638 | 0.84 | 0.76 | 0.599
NCI-H2347 | 0.467 | 0.414 | 0.445 | 0.386 | 0.389 | 0.913 | 1.24 | 1.23 | 1.02 | 0.869 | 0.993 | 1.13 | 0.961 | 0.99 | 0.844 | 0.293 | 0.451 | 0.364 | 0.319
RERF-LC-KJ | 0.479 | 0.471 | 0.484 | 0.465 | 0.475 | 0.995 | 1.1 | 1.22 | 1.1 | 1.05 | 0.93 | 1.03 | 0.877 | 0.911 | 0.831 | 0.578 | 0.569 | 0.47 | 0.438
BEN | 0.728 | 0.715 | 0.727 | 0.645 | 0.775 | 0.578 | 0.789 | 0.944 | 0.892 | 0.676 | 0.609 | 0.999 | 0.93 | 1.21 | 0.822 | 0.287 | 0.344 | 0.324 | 0.307
201T | 0.324 | 0.373 | 0.318 | 0.351 | 0.374 | 1.09 | 1.13 | 1.14 | 1.09 | 1.13 | 1.09 | 1.06 | 1.03 | 1.02 | 1.1 | 0.631 | 0.707 | 0.7 | 0.92
NCI-H647 | 0.15 | 0.162 | 0.18 | 0.163 | 0.146 | 1.01 | 1.16 | 1.09 | 0.919 | 0.649 | 1.17 | 1.1 | 1.21 | 1.17 | 1.08 | 0.546 | 0.508 | 0.489 | 0.543
NCI-H441 | 0.238 | 0.224 | 0.231 | 0.28 | 0.266 | – | 0.534 | – | 0.757 | 0.441 | 0.583 | 0.748 | 0.617 | 0.746 | 0.552 | – | 0.725 | 0.595 | 0.59
PC-3 [JPC-3] | 1.08 | 1.09 | 1.11 | 1.04 | 1 | 0.762 | 0.817 | 0.758 | 0.95 | 0.899 | 1.1 | 1.06 | 0.989 | 0.952 | 1.09 | – | 0.768 | 0.708 | 0.491
NCI-H2126 | 0.693 | 0.574 | 0.673 | 0.615 | 0.656 | 1.06 | 1.13 | 1.18 | 1.21 | 1.22 | 0.71 | 0.721 | 0.699 | 0.678 | 0.704 | 0.489 | 0.847 | 0.658 | 0.692
HCC-15 | 0.212 | 0.237 | 0.203 | 0.209 | 0.203 | 0.816 | 1.14 | 1.02 | 1.16 | 1.14 | 0.914 | 0.844 | 0.985 | 0.918 | 0.871 | 0.501 | 0.64 | 0.624 | 0.592
NCI-H2085 | 0.932 | 0.759 | 0.615 | 0.523 | 0.422 | 0.919 | 1.26 | 1.01 | 0.952 | 0.992 | 0.878 | 0.904 | 0.935 | 1.09 | 0.773 | – | 0.72 | 0.627 | 0.414
LOU-NH91 | 0.446 | 0.409 | 0.341 | 0.446 | 0.367 | 0.428 | 0.496 | 0.449 | 0.515 | 0.443 | 0.903 | 1.06 | 0.878 | 0.911 | 0.89 | 0.511 | 0.713 | 0.672 | 0.647
NCI-H3122 | 0.198 | 0.203 | 0.201 | 0.206 | 0.207 | 1.02 | 1.06 | 1.06 | 0.993 | 1.11 | 1.1 | 1.07 | 1.06 | 1.05 | 1.02 | – | 0.992 | 0.99 | 1.06
HOP-62 | 0.315 | 0.279 | 0.289 | 0.438 | 0.376 | 0.805 | 0.632 | 0.783 | 0.742 | 0.505 | 1.19 | 1.15 | 0.97 | 1.05 | 0.736 | 0.636 | 0.815 | 0.79 | 0.625
LCLC-103H | 0.441 | 0.481 | 0.451 | 0.455 | 0.5 | 0.99 | 1.13 | 1.05 | 1.13 | 1.15 | 1.11 | 1.22 | 0.984 | 1.08 | 0.869 | 0.363 | 0.447 | 0.48 | 0.444
LU99A | 0.198 | 0.173 | 0.173 | 0.232 | 0.133 | 1.26 | 1.03 | 1.43 | 1.14 | 1 | 0.556 | 0.582 | 0.614 | 0.645 | 0.468 | 0.243 | 0.296 | 0.305 | 0.249
HCC-44 | 0.681 | 0.646 | 0.655 | 0.643 | 0.668 | 0.899 | 0.918 | 0.909 | 0.92 | 0.976 | 0.587 | 0.84 | 0.66 | 0.715 | 0.58 | 0.373 | 0.587 | 0.4 | 0.27
NCI-H2405 | 1.01 | 1.05 | 1.07 | 0.952 | 0.885 | 1.02 | 0.991 | 0.977 | 0.954 | 0.988 | 0.972 | 1.05 | 0.956 | 0.831 | 0.848 | 0.481 | 0.71 | 0.671 | 0.568
PC-14 | 0.135 | 0.125 | 0.134 | 0.145 | 0.118 | 0.801 | 0.81 | 0.812 | 1.07 | 0.88 | 0.93 | 1.12 | 0.978 | 1.09 | 0.745 | 0.728 | 0.72 | 0.769 | 0.511
COR-L23 | 0.22 | 0.198 | 0.186 | 0.218 | 0.189 | 0.864 | 0.703 | 1.11 | 1.09 | 0.496 | 0.703 | 0.816 | 1.02 | 0.99 | 0.747 | 0.595 | 0.756 | 0.789 | 0.409
NCI-H1666 | 0.783 | 0.852 | 0.839 | 0.802 | 0.856 | 0.849 | 0.838 | 0.693 | 0.904 | 0.782 | 0.753 | 0.817 | 0.873 | 1 | 0.653 | 0.716 | 0.884 | 0.845 | 0.691
